Assay [1] deals with T-24. The assay is described as follows: Inhibition of tumor growth in human T24 cells xenografted sc dosed SCIDnodCA mouse. Type of assay: functional. Also noted: scale not given: the % may be the effect or the level left. (A xenograft is tissue or cells of one species grown in another, often human tumour cells in immunodeficient mice.)
Assay [2] relates to T-24. Nature of the assay: Inhibition of tumor growth in human T24 cells xenografted orally dosed SCIDnodCA mouse. Also noted: scale not given: the % may be the effect or the level left. In kind it is functional.

As for `Oc1ccc2cc(O[C@@H]3OC[C@@H](O)[C@H](O)[C@H]3O)ccc2c1`, the figures for the Activity in the assay on T-24 [1] and in the assay on T-24 [2] were 97% and 70%, respectively.

Values taken from ChEMBL document CHEMBL1143877, “Xylose as a carrier for boron containing compounds” (2008).
